These results are taken from ChEMBL document CHEMBL1130901, “Halohydrin analogues of cryptophycin 1: synthesis and biological activity” (Bioorg Med Chem Lett, 1998).

Series [1] in a line: Half life in PEM buffer at pH 7.4. Format: ADME.
The nature of series [2]: Half life in phosphate buffer at pH 7.4. Format: ADME.
A short description of series [3]: Tested in vitro for the concentration that reduces the amount of pelleted protein by 50% in microtubule assembly assay. Format: functional.

On to `COc1ccc(C[C@H]2NC(=O)/C=C/C[C@@H]([C@H](C)[C@@H](O)[C@@H](I)c3ccccc3)OC(=O)[C@H](CC(C)C)OC(=O)[C@H](C)CNC2=O)cc1Cl`, for which the half-life – broadly, how long it takes for the measured level to halve – is under 1 min in series [1] and 2.5 min in series [2].

For `COc1ccc(C[C@H]2NC(=O)/C=C/C[C@@H]([C@H](C)[C@@H](O)[C@@H](Cl)c3ccccc3)OC(=O)[C@H](CC(C)C)OC(=O)[C@H](C)CNC2=O)cc1Cl`, the half-life was 75 min in series [1] and 660 min in series [2]. The compound further had an ED50 in series [3] of 7.5 mM.

On to `COc1ccc(C[C@H]2NC(=O)/C=C/C[C@@H]([C@H](C)[C@@H](O)[C@@H](Br)c3ccccc3)OC(=O)[C@H](CC(C)C)OC(=O)[C@H](C)CNC2=O)cc1Cl`, for which the half-life is 3.7 min in series [1] and 11 min in series [2].
